How the values were obtained:
YtvA [1] = biological target: T1, YtvA (Bacillus subtilis, UniProt O34627, M1G); assay: ITC; also 1H-15N TROSY/HSQC, STD and WaterLOGSY NMR, fluorescence; assay type: binding
T1 construct: gene pfyP; full-length YtvA (Met1 replaced by Gly)

YtvA [2] = biological target: T2, YtvA (Bacillus subtilis, UniProt O34627, M1G); assay: fluorescence enhancement on adding protein ([…] YtvA, […] dye); assay type: binding
T2 construct: gene pfyP; full-length YtvA and isolated STAS domain (amino acids 148–261)
T2 sequence (O34627 1-261 M1G): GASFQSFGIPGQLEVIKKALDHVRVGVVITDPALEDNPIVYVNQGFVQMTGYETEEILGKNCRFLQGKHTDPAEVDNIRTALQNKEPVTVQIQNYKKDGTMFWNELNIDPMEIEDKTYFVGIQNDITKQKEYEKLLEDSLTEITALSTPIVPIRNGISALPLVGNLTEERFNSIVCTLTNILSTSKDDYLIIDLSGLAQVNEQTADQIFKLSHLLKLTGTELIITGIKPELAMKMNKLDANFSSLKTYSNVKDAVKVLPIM

| SMILES | Kd (YtvA [1]) [nM] | fluorescence enhancement on adding protein (12 μM YtvA, 2.2 μM dye) (YtvA [2]) |
| --- | --- | --- |
| Nc1nc2c(ncn2[C@@H]2O[C@H](COP(=O)(O)OP(=O)(O)OP(=O)(O)O)[C@@H](O)[C@H]2OC(=O)NCCNC(=O)COc2ccc(C3=[N+]4C(=Cc5ccc(-c6cccs6)n5[B-]4(F)F)C=C3)cc2)c(=O)[nH]1 [BODIPY-GTP] | 2500 | – |
| COC(=O)COc1ccc(-c2ccc3n2[B-](F)(F)[N+]2=C(c4cccs4)C=CC2=C3)cc1 [BODIPY methyl ester] | – | This suggests that only the fluorophore is binding to the protein but the GTP part does not. |
